# Assays:
# Format in all cases: cell-based
# [1] = test system: Dendritic cells + T cells + CD3/CD28 beads; test: CRS assay: dendritic cells + T cells + CD3/CD28 beads, IL2 ELISA; details: Homo sapiens; same culture; IL-2 only produced by the activated T cells
# Text: (§1) Human PBMC cells (PPA Research Group, Cat No. 15-00021); RPMI media 10% FBS; GMCSF (Peprotech, Cat No. 300-03) and IL4 (Peprotech Cat No. 200-04); White clear bottom 96 well plates (Fisher, Cat No. 07-200-587, Corning #3903); Human IL-2 DuoSet ELISA (R&D Systems, Cat No. DY202); Human IL-6 DuoSet ELISA (R&D Systems, Cat No. DY206); Cell Titer Glo reagent (Promega, Cat No. G7573); Dynabeads Human T-Activator CD3/CD28 (Fisher, Cat No. 111.61D); Anti-human CD3 (BD Biosciences, Cat No. 555336); CD28, Clone CD28.2 (Beckman Coulter Inc. Cat No. IM1376); Recombinant Human IL-2 Protein (R&D Systems, Cat No. 202-IL-500).
# Human peripheral blood mononuclear cells (PBMC) (400 million) obtained from the vendor were transferred into three T-175 flasks containing 16 ml RPMI media (10% fetal bovine serum (FBS)) and incubated for 2 hours at 37° C. After 2 hours, floating PBL was removed and the cell was rinsed twice with 10 ml of media. The PBL and media was saved for T cell expansion. 16 ml of fresh RPMI media (10% FBS) containing Granulocyte Macrophage Colony—Stimulating Factor (GMCSF) (100 ng/ml) and IL4 (20 ng/ml) was added and the flask was kept in a 37° C. incubator. […]
# (§2) After incubation, 80 μl of the supernatant was harvested from each well for IL6 ELISA and 80 μl of the supernatant for IL2 ELISA. […] The plate was read for luminescence intensity to determine the compound cytotoxicity.
# [2] = test system: Dendritic cells + T cells + CD3/CD28 beads; test: CRS assay: dendritic cells + T cells + CD3/CD28 beads, IL6 ELISA; details: human PBMC-derived dendritic cells, 1 hour compound pre-incubation, overnight with T cells and CD3/CD28 beads; IL-6 primarily produced by the dendritic cells
# [3] = test system: Dendritic cells + T cells + CD3/CD28 beads; test: CRS assay: Cell Titer Glo compound cytotoxicity; details: Homo sapiens, luminescence of the remaining culture, read-out: Cell Titer Glo 2 EC50
# Text: as §1
# After 4 days, the dendritic cells were harvested by spinning down (1000 rpm/10 min) and aspirating the media. After resuspending the cells in fresh RPMI media (10% FBS), the cells were plated (25K/well in 50 μl) onto a white clear bottom 96 well plate. […] of RPMI media containing 2× concentrated test compound was added per well to the above cell-culture media (final concentration becomes 1×) and the plates were pre-incubated for 1 hour at 37° C. […]
# as §2
SMILES,EC50 [1] [µM],EC50 [2] [µM],EC50 [3] [µM]
"COc1cc(Nc2ncc(C)c(Nc3ccc4oc(=O)[nH]c4c3)n2)cc(C)c1F [Compound I-432, 5-(2-(4-fluoro-3-methoxy-5-methylphenylamino)-5-methylpyrimidin-4-ylamino)benzo[d]oxazol-2(3H)-one]",4.41,0.052,4.55
"CCO[C@H]1CC[C@H](n2cc(NC(=O)c3csc(-c4cn[nH]c4)n3)c(-c3nc(F)ccc3F)n2)CC1 [VI-176, N-(3-(3,6-difluoropyridin-2-yl)-1-((1r,4r)-4-ethoxycyclohexyl)-1H-pyrazol-4-yl)-2-(1H-pyrazol-4-yl)thiazole-4-carboxamide]",6.9,0.195,12
